Data from ChEMBL document CHEMBL5584338, “Design, Synthesis, and Biological Evaluation of 5-Amino-4-fluoro-1H-benzo[d]imidazole-6-carboxamide Derivatives as Novel and Potential MEK/RAF Complex Inhibitors Based on the "Clamp" Strategy” (J Med Chem, 2024).
Activity calls are given as the source filed them. The calls are words filed in the database; no cut-off is given here.

Experiments:
HCT-116 [1] = test: Antiproliferative activity against human HCT-116 cells harboring KRAS G13D mutant incubated for 72 hrs by CCK8 assay; type: functional, cell-based; conditions: HCT-116, 72 h
[2] = biological target: T1, Dual specificity mitogen-activated protein kinase kinase 1 (Homo sapiens, UniProt Q02750); test: Inhibition of MEK1 (unknown origin)
[3] = biological target: Serine/threonine-protein kinase B-raf (Homo sapiens, UniProt P15056); test: Inhibition of BRAF (unknown origin) assessed as remaining activity at 0.1 uM relative to control
[4] = Antiproliferative activity against mouse C26 cells harboring KRAS G12D mutant incubated for 72 hrs by CCK8 assay; type: functional, cell-based, C-26; conditions: C26, 72 h
HeLa = test: Antiproliferative activity against human HeLa cells incubated for 72 hrs by CCK8 assay; type: functional, cell-based
[5] = Stability in human liver microsomes assessed as half life at 200 uM preincubated for 5 mins followed by NADPH addition measured upto 60 mins by LC-MS/MS analysis; type: ADME, Microsome; conditions: time 65 min
MIA PaCa-2 [6] = test: Inhibition of MEK1/2/BRAF complex in human MIA PaCa-2 cells at 100 nM incubated for 4 hrs by co-immunoprecipitation method; type: cell-based
[7] = biological target: T1, Dual specificity mitogen-activated protein kinase kinase 1; test: Inhibition of MEK1 (unknown origin) at 1 uM by kinase profiling analysis
[8] = biological target: Dual specificity mitogen-activated protein kinase kinase 2 (Homo sapiens) (UniProt P36507); test: Binding affinity to MEK2 (unknown origin) at 1 uM by kinase profiling analysis
HCT-116 [9] = test: Inhibition of colony formation in human HCT-116 cells incubated for 10 days by crystal violet staining based analysis; type: functional, cell-based; conditions: dose 0.1-10 µM, time 10.0 day
HUVEC = test: Inhibition of cell migration in human HUVEC cells at 0.01 to 1 uM incubated for 24 hrs by wound healing assay; type: functional, cell-based; conditions: dose 0.01-1 µM
MIA PaCa-2 [10] = test: Induction of apoptosis in human MIA PaCa-2 cells assessed as increase in cleaved PARP-1 level upto 1 uM incubated for 24 hrs by Western blot analysis; type: functional, cell-based
MIA PaCa-2 [11] = test: Induction of apoptosis in human MIA PaCa-2 cells assessed as late apoptotic cells at 0.25 uM incubated for 24 hrs by Annexin V-FITC/PI staining based flow cytometry (reference value: 6.90 %); type: functional
MIA PaCa-2 [12] = test: Induction of apoptosis in human MIA PaCa-2 cells assessed as late apoptotic cells at 5 uM incubated for 24 hrs by Annexin V-FITC/PI staining based flow cytometry (reference value: 6.90 %); type: functional
MIA PaCa-2 [13] = test: Induction of cell cycle arrest at G0/G1 phase in human MIA PaCa-2 cells at 0.01 to 0.25 uM incubated for 24 hrs by PI/RNase staining based flow cytometry (reference value: 47.37 %); type: functional; conditions: dose 0.01-0.25 µM
[14] = Cmax in Sprague-Dawley rat at 5 mg/kg, iv; type: ADME, organism-based; conditions: in vivo
C-26 = test: Antitumor activity against mouse C26 cells harboring KRAS G12D mutant xenografted in BALB/c mouse assessed as tumor growth inhibition administered intravenously 5 times a week for 12 days; type: functional, cell-based; conditions: dose 5-30 mg/kg, route iv, time 12.0 day
[15] = Antitumor activity against mouse C26 cells harboring KRAS G12D mutant xenografted in BALB/c mouse at 30 mg/kg, iv administered 5 times a week for 12 days relative to control; type: functional, C-26; conditions: C26, 288 h, time 12 day, read-out: TGI
HCT-116 [16] = test: Antitumor activity against human HCT-116 cells harboring KRAS G13D mutant xenografted in NU/NU mouse at 30 mg/kg, iv administered 5 times a week for 16 days relative to control; type: functional; conditions: HCT-116, 384 h, time 16 day, read-out: TGI
[17] = Toxicity in BALB/c mouse xenografted with […] harboring KRAS G12D mutant assessed as body weight change at 5 to 30 mg/kg, iv administered 5 times a week for 12 days; type: organism-based, C-26; conditions: in vivo, 288 h, dose 5-30 mg/kg, time 12 day
[18] = Toxicity in NU/NU mouse xenografted with human HCT-116 cells harboring KRAS G13D mutant assessed as animal death at 15 to 30 mg/kg, iv administered 5 times a week for 16 days; type: organism-based; conditions: in vivo, 384 h, dose 15-30 mg/kg, time 16 day

T1 sequence (Q02750 whole entry): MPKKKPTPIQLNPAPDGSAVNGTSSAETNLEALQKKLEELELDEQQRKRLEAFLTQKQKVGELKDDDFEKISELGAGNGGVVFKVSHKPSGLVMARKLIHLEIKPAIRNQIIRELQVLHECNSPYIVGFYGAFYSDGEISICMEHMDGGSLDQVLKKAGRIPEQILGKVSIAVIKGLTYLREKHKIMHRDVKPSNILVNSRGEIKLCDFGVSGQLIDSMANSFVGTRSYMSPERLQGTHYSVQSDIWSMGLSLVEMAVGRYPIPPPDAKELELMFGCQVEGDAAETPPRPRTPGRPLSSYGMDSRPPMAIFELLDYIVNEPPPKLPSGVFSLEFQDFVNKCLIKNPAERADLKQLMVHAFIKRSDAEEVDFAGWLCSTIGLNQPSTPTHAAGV
Sequence of Dual specificity mitogen-activated protein kinase kinase 2 (Homo sapiens) (P36507 whole entry): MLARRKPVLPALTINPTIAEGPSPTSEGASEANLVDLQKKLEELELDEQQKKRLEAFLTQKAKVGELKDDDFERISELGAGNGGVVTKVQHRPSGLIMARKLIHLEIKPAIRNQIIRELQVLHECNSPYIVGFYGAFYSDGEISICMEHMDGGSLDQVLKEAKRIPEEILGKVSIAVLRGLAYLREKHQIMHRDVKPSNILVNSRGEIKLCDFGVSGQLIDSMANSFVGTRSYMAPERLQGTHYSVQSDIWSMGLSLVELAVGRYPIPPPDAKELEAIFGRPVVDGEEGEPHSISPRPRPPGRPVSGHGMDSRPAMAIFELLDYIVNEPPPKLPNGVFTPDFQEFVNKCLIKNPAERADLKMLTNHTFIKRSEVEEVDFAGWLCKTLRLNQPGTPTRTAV
Sequence of Serine/threonine-protein kinase B-raf (P15056 whole entry): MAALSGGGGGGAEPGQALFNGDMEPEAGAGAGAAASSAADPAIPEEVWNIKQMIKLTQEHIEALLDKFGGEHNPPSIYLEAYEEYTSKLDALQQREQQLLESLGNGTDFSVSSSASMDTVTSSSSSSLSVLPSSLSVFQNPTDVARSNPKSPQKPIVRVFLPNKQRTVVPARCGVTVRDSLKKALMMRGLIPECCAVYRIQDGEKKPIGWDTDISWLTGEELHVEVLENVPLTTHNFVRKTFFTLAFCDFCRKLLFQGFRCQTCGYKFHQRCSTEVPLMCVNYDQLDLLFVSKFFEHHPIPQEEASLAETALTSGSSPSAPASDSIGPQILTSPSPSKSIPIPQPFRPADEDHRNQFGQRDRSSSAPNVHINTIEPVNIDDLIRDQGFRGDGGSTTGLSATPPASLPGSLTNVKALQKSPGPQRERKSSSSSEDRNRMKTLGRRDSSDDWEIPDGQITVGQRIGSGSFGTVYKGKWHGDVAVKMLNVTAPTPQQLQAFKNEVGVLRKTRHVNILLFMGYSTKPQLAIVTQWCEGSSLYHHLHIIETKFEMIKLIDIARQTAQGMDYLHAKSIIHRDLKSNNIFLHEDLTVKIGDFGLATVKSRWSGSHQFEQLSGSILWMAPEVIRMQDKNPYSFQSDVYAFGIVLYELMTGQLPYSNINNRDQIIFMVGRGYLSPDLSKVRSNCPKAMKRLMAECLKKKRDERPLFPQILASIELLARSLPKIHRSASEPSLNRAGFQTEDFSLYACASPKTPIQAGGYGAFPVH

CCNS(=O)(=O)Nc1cccc(Cn2cnc3c(F)c(Nc4ccc(C5CC5)cc4F)c(C(=O)NOCCO)cc32)c1F
IC50 (HCT-116 [1]): 79 nM | IC50 [2]: 28 nM | Activity [3]: -3% | IC50 [4]: 96 nM | IC50 (HeLa): > 10000 nM | half-life at 200 µM [5]: 58.7 min | inhibition (MIA PaCa-2 [6]): Active | inhibition [7]: Active | Activity [8]: Active | inhibition (HCT-116 [9]): Dose-Dependent Effect | inhibition (HUVEC): Active | Activity (MIA PaCa-2 [10]): Active | Activity (MIA PaCa-2 [11]): 7.36% | Activity (MIA PaCa-2 [12]): 9.09% | Activity (MIA PaCa-2 [13]): 87.94% | Cmax [14]: 603 ng/mL | inhibition (C-26): Active | inhibition in vivo at 30 mg/kg [15]: 70% | inhibition in vivo at 30 mg/kg (HCT-116 [16]): 93% | Activity [17]: Non-Toxic | Activity [18]: Non-Toxic
